In this experiment the test system is human iCell neurons. Description: Amyloid beta 42 ELISA on supernatant, neuronal model. Conditions: treated 2 days, 3 concentrations, FIG. 2.

Procedure: For a neuronal model, human iCell neurons (Cellular Dynamics International) were plated in 96-well plates and were grown to neuronal maturity by culturing for 2 weeks.
In each model, cells were then treated with DHA (UFA), arginine and citrulline (NORC's) at 3 different concentrations (see table 1 in FIG. 1) for 2 days. The supernatant was used to perform Amyloid beta 42 (A131-42) ELISA Kit, Human (KHB3441, Thermo Fisher Scientific).

For `NC(=O)NCCC[C@H](N)C(=O)O` [citrulline], the “release of Aβ1-42” value is reported as “no effect”. Take `CC/C=C\C/C=C\C/C=C\C/C=C\C/C=C\C/C=C\CCC(=O)O` [DHA, docosahexaenoic acid]: the “release of Aβ1-42” value is “no effect”.

(Values after patent publication US11951137B2, “Compositions comprising unsaturated fatty acids and nitric oxide releasing compounds and use thereof for enhancing cognitive and related functions” (SOCIETE DES PRODUITS NESTLE S.A., priority 2008, dated 2024).)
